Laboratory results reported in US11530197B2, “Analogs for the treatment of disease” (Insilico Medicine IP Limited, priority 2021, dated 2022).

Experiments:
[1] = tested on: Collagen I (COL1A1) in LX-2 cells; assay: Collagen and Alpha-SMA in LX-2 (Western blot after TGF-β stimulation); format: cell-based; settings: Homo sapiens, 4 ng/ml TGF-β for 48 hours, Collagen I normalized to GAPDH;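 note: cells serum-starved in 0.4% FBS before treatment, lysates analysed by Western blot, DMSO-only wells as blank and TGF-β alone as maximal induction control, three independent experiments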
Method: 3 ml of 0.25% Trypsin-EDTA solution was then added and cells were incubated at 37° C. for 5 min for each T150-flask. 7 ml of culture medium was added to stop trypsinization. The cells were centrifuged at 300×g for 5 min. Supernatant medium was discarded and cells were re-suspended with fresh culture medium. The cells were counted with Cell viability analyzer. 5.0E+05 cells/well were seeded into 6-well plate containing 2.0 mL of culture medium. The cells were cultured overnight at 37° C. The next day, the complete medium was replaced with medium with 0.4% FBS for starvation. […] In parallel, medium containing only DMSO and TGF-β was used as blank control and positive control, respectively. TGF-β induction was used as maximum induction positive control. The culture medium was discarded at the end of induction. Cells were washed once using ice-cold DPBS. RIPA buffer was added to lyse the cells for 20 min. The cells were then scraped off the culture plate, collected in a tube and centrifuged. The supernatant was stored at −80° C. The total amount of protein in the lysate was determined using BCA Protein Assay kit. The cell treatment of fibrosis assay was performed in three independent experiments for each compound.
All the lysate samples were adjusted to the same protein concentration with RIPA buffer after BCA assay. […] The denatured samples were used for electrophoresis. Western blot was performed according to the standard protocols. The same volume of protein was loaded onto 4-12% Bis-Tris gel. Duplicate lysates of samples were loaded onto two gels. The gels were run for 0.5 h at 80 V and 120 V for another 1 h. When the electrophoresis was completed, the gels containing target protein Collagen I (COL1A1) were transferred onto NC membrane using Trans-Blot Electrophoretic Transfer Cell for 90 min at 100 V. The iBlot™ 2 Gel Transfer Device was used to transfer α-SMA and GAPDH at 20 V for 7 min. All the membranes were blocked in TBST buffer with 5% nonfat dry milk in at RT for 1 h and then incubated with primary antibody anti-COL1A1 and anti-α-SMA in TBST buffer containing 5% BSA at 4° C. overnight. For GAPDH detection, the membrane with α-SMA immunoblots were stripped with Restore™ Western Blot Stripping Buffer after detection. And the membranes were re-blocked and then re-probed with primary antibody anti-GAPDH antibody at room temperature (RT) for 2 h. After incubation with primary antibodies, membranes were washed with TBST, then incubated with the secondary antibody at RT for 1 h. Blots were visualized using the instrument Image Quant LAS-4000. The chemiluminescent signals derived from ECL Western blotting reagents were captured. The bands integrated intensity from 16-bit blot images was used for quantitation with the software (1D component of ImageQuant TL). The quantification raw data of the two duplicated gels was obtained from ImageQuant TL. Collagen I and α-SMA proteins expression level was normalized to GAPDH for each gel. The average normalization data of the two duplicated gels was calculated and applied to calculate IC50 using an equation for a sigmoidal dose response (variable slope) of GraphPad™ Prism software. The equation is Y=Bottom+(Top-Bottom)/(1+10^((Log IC50−X)*Hillslope). Note: X is the logarithm of compound concentration, Y is the average normalization data

[2] = Metabolic stability in human liver microsomes; format: in vitro ADME; settings: LM Clint; 1 μM test compound, 0.5 mg protein/mL microsome, 37° C., up to 60 min;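 note: NADPH-supplemented human liver microsomes sampled at 0, 5, 10, 20, 30 and 60 min, parent compound quantified by LC-MS/MS, intrinsic clearance from first-order decay, no-cofactor incubation as control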
Method: Test Compound an Control Working Solution Preparation: Working solution: 5 μL of compound and control stock solution (10 mM in dimethyl sulfoxide (DMSO)) were diluted with 495 µL of acetonitrile (ACN) (intermediate solution concentration: 100 μM, 99% ACN).
Preparation Procedure: The appropriate amount of NADPH powder was weighed and diluted into a 10 mM MgCl2 solution (working solution concentration: 10 unit/mL; final concentration in reaction system: 1 unit/mL).
Preparation Procedure: The appropriate concentrations of microsome working solutions were prepared in 100 mM potassium phosphate buffer.
Stop Solution Preparation: Cold (4° C.) acetonitrile (ACN) containing 200 ng/mL tolbutamide and 200 ng/mL labetalol as internal standards (IS) was used as the stop solution.
Dilute liver microsomes to 0.56 mg/mL in 100 mM phosphate buffer.
Transfer 445 μL microsome working solutions (0.56 mg/mL) into pre-warmed ‘Incubation’ plates T60 and NCF60, Then pre-incubate ‘Incubation’ plates T60 and NCF60 for 10 min at 37° C. with constant shaking. Transfer 54 μL liver microsomes to blank plate, then add 6 μL NAPDH cofactor to blank plate, and then add 180 μL quenching solution to blank plate.
2.5.4 Add 5 μL compound working solution (100 μM) into ‘incubation’ plates (T60 and NCF60) containing microsomes and mix 3 times thoroughly.
For the NCF60 plate, add 50 μL of buffer and mix 3 times thoroughly. Start timing; plate will be incubated at 37° C. for 60 min while shaking.
For the T60 plate, mix 3 times thoroughly, and immediately remove 54 μL mixture for the 0-min time point to ‘Quenching’ plate. Then add 44 μL NAPDH cofactor to incubation plate (T60). Start timing; plate will be incubated at 37° C. for 60 min while shaking.
At 5, 10, 20, 30, and 60 min, add 180 μL quenching solution to ‘Quenching’ plates, mix once, and serially transfer 60 μL sample from T60 plate per time point to ‘Quenching’ plates.
For NCF60: mix once, and transfer 60 μL sample from the NCF60 incubation to ‘Quenching’ plate containing quenching solution at the 60-min time point.
All sampling plates are shaken for 10 min, then centrifuged at 4000 rpm for 20 minutes at 4° C.
Transfer 80 μL supernatant into 240 μL HPLC water, and mix by plate shaker for 10 min.
Each bioanalysis plate was sealed and shaken for 10 minutes prior to LC-MS/MS analysis.
The equation of first order kinetics was used to calculate T½ and Intrinsic clearance (CLint mic) in (L/min/mg).

[3] = target: TNIK(h) (Homo sapiens (Human), UniProt Q9UKE5); assay: TNIK Human STE Kinase Enzymatic Radiometric Assay; format: biochemical; settings: ATP 70 μM; 40 min at room temperature; read-out: TNIK (IC50);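 note: remaining kinase activity relative to DMSO control, compound added without preincubation, reaction started with ATP, IC50 from variable-slope sigmoidal dose-response fit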
Method: (§1) The reaction is initiated by the addition of the Mg/ATP mix. After incubation for 40 minutes at room temperature, the reaction is stopped by the addition of phosphoric acid to a concentration of 0.5%.
INCUBATION: 40 min at Room temperature
COMPOUND DILUTION SCHEME: All compounds supplied were prepared to a working stock of 50× final assay concentration in 100% DMSO. Where appropriate, more concentrated stocks were diluted manually to 50× using 100% DMSO. Compounds supplied as powders were reconstituted to a 10 mM stock in 100% DMSO before further dilution to 50×. ASSAY PROCEDURE: The required volume of the 50× stock of test compound was added to the assay before a reaction mix containing the enzyme and substrate was added. The reaction was initiated by the addition of ATP at the selected concentration. There was no pre-incubation of the compound with the enzyme/substrate mix prior to ATP addition. […] Results are expressed as kinase activity remaining, as a percentage of the DMSO control. This is calculated using the following formula:
(§2) For IC50 determinations, data are analyzed using XLFit version 5.3 (ID Business Solutions). Sigmoidal dose-response (variable slope) curves are fit based on the mean result for each test concentration using non-linear regression analysis. Where the top and/or bottom of the curve fall >10% out with 100 and 0, respectively, either or both of these limits may be constrained at 100 and 0, provided that the QC criterion on R2 is met.

[4] = target: MAP4K4 (h) (Homo sapiens (Human), UniProt O95819); assay: MAP4K4 Human STE Kinase Enzymatic Radiometric Assay; format: biochemical; settings: ATP 200 μM; 40 min at room temperature;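 note: kinase activity remaining relative to the DMSO control, IC50 derived from sigmoidal variable-slope curve fits, no preincubation of compound with enzyme before ATP start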
MAP4K4 (h), sequence (O95819 whole entry): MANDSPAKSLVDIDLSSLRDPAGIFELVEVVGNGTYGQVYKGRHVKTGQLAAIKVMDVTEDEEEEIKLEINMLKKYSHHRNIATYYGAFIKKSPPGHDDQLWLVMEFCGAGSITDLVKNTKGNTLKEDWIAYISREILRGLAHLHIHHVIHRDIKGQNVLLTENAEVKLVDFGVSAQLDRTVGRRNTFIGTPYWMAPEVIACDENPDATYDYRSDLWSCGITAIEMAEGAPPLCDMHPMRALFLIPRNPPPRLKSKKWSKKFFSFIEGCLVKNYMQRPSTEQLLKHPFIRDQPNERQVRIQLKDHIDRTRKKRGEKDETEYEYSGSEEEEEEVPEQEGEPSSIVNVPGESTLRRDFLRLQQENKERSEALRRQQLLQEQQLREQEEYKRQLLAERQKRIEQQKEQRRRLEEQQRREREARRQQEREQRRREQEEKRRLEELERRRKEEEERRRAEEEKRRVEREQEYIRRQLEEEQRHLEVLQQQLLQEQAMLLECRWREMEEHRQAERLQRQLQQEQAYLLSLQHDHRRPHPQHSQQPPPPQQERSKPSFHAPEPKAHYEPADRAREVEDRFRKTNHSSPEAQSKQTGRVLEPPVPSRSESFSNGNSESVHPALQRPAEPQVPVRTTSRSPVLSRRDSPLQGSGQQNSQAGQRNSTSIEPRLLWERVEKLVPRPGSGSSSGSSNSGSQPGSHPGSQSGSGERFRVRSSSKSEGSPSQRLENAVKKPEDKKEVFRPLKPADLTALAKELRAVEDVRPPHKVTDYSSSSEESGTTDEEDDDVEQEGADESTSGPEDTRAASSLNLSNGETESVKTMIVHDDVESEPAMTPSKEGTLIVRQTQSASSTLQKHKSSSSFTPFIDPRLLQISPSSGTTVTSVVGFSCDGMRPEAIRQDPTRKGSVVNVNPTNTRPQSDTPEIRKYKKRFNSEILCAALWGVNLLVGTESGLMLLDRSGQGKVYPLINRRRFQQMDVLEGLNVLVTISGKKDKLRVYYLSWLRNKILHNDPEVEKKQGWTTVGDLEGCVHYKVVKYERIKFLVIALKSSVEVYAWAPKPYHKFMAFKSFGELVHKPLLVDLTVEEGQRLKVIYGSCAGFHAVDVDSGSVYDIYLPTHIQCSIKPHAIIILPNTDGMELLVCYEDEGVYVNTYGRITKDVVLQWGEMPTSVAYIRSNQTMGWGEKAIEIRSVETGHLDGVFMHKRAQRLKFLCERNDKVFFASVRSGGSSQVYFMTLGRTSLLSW
Method: as §1
INCUBATION: 40 min at Room temperature
COMPOUND DILUTION SCHEME: All compounds supplied were prepared to a working stock of 50× final assay concentration in 100% DMSO. Where appropriate, more concentrated stocks were diluted manually to 50× using 100% DMSO. Compounds supplied as powders were reconstituted to a 10 mM stock in 100% DMSO before further dilution to 50×.
ASSAY PROCEDURE: The required volume of the 50× stock of test compound was added to the assay before a reaction mix containing the enzyme and substrate was added. The reaction was initiated by the addition of ATP at the selected concentration. There was no pre-incubation of the compound with the enzyme/substrate mix prior to ATP addition.
Results are expressed as kinase activity remaining, as a percentage of the DMSO control. This is calculated using the following formula: Mean of Sample Counts−Mean of Blank Counts/Mean of Control Counts
as §2

TNIK(h), sequence (Q9UKE5 whole entry): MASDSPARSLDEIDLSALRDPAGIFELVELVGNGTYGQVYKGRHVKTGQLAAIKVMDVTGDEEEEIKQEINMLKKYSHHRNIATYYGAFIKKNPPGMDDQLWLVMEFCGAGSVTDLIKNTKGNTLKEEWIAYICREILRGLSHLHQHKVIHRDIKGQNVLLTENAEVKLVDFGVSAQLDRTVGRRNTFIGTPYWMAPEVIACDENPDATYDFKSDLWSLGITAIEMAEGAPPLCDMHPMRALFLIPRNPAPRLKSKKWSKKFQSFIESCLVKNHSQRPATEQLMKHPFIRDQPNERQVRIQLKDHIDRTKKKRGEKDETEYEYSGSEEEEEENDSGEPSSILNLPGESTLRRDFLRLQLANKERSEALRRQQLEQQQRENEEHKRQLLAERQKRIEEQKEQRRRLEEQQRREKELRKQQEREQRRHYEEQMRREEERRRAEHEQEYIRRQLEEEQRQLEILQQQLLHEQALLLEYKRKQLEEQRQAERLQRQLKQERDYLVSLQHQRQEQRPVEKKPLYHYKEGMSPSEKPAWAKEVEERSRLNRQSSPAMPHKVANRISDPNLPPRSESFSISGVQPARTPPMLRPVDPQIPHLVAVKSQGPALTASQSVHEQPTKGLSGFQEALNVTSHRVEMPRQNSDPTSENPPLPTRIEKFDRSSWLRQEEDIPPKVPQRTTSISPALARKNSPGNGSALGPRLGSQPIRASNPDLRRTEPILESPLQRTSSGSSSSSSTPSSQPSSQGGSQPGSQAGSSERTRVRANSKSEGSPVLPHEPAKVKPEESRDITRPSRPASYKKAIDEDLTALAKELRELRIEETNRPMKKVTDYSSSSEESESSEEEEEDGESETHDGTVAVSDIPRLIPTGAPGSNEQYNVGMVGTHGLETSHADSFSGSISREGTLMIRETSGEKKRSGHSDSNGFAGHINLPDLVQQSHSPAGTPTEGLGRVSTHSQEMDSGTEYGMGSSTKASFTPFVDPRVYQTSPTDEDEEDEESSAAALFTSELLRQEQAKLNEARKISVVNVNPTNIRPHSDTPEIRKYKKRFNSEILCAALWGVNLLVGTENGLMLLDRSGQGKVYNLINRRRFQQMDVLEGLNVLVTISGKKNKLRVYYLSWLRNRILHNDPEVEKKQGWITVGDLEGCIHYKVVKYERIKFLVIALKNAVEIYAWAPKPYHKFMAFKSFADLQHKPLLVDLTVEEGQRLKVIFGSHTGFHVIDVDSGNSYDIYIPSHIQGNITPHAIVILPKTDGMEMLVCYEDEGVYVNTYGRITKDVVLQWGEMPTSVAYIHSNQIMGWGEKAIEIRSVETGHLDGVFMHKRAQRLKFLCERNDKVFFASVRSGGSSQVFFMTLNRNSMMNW

| SMILES | IC50 [1] | Human Liver Microsome (μM/min/mg) [2] | IC50 [3] | IC50 [4] |
| --- | --- | --- | --- | --- |
| O=C(Nc1ccccc1F)c1occc1-c1c(-c2cccnc2)ncn1C1CCCC1 [Compound 1] | > 1 nM |  |  |  |
| CC(C)n1cnc(-c2ccc(F)cc2)c1-c1nc(C(=O)Nc2ccc(CCCCC(=O)O)cc2)c[nH]1 [Compound 132, 5-(4-(5′-(4-fluorophenyl)-3′-isopropyl-1H,3′H-[2,4′-biimidazole]-4-carboxamido)phenyl)pentanoic acid] |  | +++ (1-10 μM/min/mg as +++) | 12 to 120 nM | 12 to 120 nM |
| CC(C)n1cnc(-c2ccc(F)cc2)c1-c1nc(C(=O)Nc2ccc(N3CCNCC3)cc2)c[nH]1 [Compound 181, 5′-(4-fluorophenyl)-3′-isopropyl-N-(4-(piperazin-1-yl)phenyl)-1H,3′H-[2,4′-biimidazole]-4-carboxamide] |  | ++ (10-100 μM/min/mg as ++) | 12 to 120 nM | 12 to 120 nM |
| CC(=O)N1CCN(c2ccc(NC(=O)c3c[nH]c(-c4c(-c5ccc(F)cc5)ncn4CC(F)(F)F)n3)cc2)CC1 [Compound 191, N-(4-(4-acetylpiperazin-1-yl)phenyl)-5′-(4-fluorophenyl)-3′-(2,2,2-trifluoroethyl)-1H,3′H-[2,4′-biimidazole]-4-carboxamide] | 0.1 to 1 nM |  | 12 to 120 nM | 12 to 120 nM |
| O=C(NC1CCOCC1)c1ccc(-c2c(-c3ccc(F)cc3)ncn2C2CCCC2)o1 [Compound 39] | > 1 nM |  |  |  |
| CC(C)n1cnc(-c2ccc(C(F)(F)F)cc2)c1-c1nc(C(=O)Nc2ccc(CCC(=O)O)cc2)c[nH]1 [Compound 133, 3-(4-(3′-isopropyl-5′-(4-(trifluoromethyl)phenyl)-1H,3′H-[2,4′-biimidazole]-4-carboxamido)phenyl)propanoic acid] |  | +++ (1-10 μM/min/mg as +++) | > 120 nM | > 120 nM |
| CN1CCN(c2ccc(NC(=O)c3c[nH]c(-c4c(-c5ccc(F)cc5)ncn4CC(C)(C)C)n3)cc2)CC1 [Compound 135, 5′-(4-fluorophenyl)-N-(4-(4-methylpiperazin-1-yl)phenyl)-3′-neopentyl-1H,3′H-[2,4′-biimidazole]-4-carboxamide] |  | + (>100 μM/min/mg as +) | 12 to 120 nM | > 120 nM |
| CC1CN(c2ccc(NC(=O)c3c[nH]c(-c4c(-c5ccc(F)cc5)ncn4CC(F)(F)F)n3)cc2)CC(C)N1C (stereo not shown) [Compound 190, 5′-(4-fluorophenyl)-3′-(2,2,2-trifluoroethyl)-N-(4-(3,4,5-trimethylpiperazin-1-yl)phenyl)-1H,3′H-[2,4′-biimidazole]-4-carboxamide] | < 0.1 nM |  | 1 to 12 nM | 12 to 120 nM |
| CC(C)n1cnc(-c2ccc(C(F)(F)F)cc2)c1-c1nc(C(=O)Nc2ccc(N3CCN(C)CC3)cc2)c[nH]1 [Compound 142, 3′-isopropyl-N-(4-(4-methylpiperazin-1-yl)phenyl)-5′-(4-(trifluoromethyl)phenyl)-1H,3′H-[2,4′-biimidazole]-4-carboxamide] |  | + (>100 μM/min/mg as +) | > 120 nM | > 120 nM |
| CC(C)n1cnc(-c2ccc(F)cc2)c1-c1nc(C(=O)Nc2ccc(N3CCN(S(N)(=O)=O)CC3)cc2)c[nH]1 [Compound 97, 5′-(4-fluorophenyl)-3′-isopropyl-N-(4-(4-sulfamoylpiperazin-1-yl)phenyl)-1H,3′H-[2,4′-biimidazole]-4-carboxamide] |  | + (>100 μM/min/mg as +) | 12 to 120 nM | 12 to 120 nM |
| CN1CCN(c2ccc(NC(=O)c3c[nH]c(-c4c(-c5ccc(F)cc5)ncn4C)n3)cc2)CC1 [Compound 119, 5′-(4-fluorophenyl)-3′-methyl-N-(4-(4-methylpiperazin-1-yl)phenyl)-1H,3′H-[2,4′-biimidazole]-4-carboxamide] |  | ++ (10-100 μM/min/mg as ++) | > 120 nM | > 120 nM |
| O=C(Nc1ccccc1F)c1occc1-c1c(-c2ccc(F)cc2)ncn1CC1CCOC1 (stereo not shown) [Compound 4] | > 1 nM |  |  |  |
| CN1CCN(c2ccc(NC(=O)c3c[nH]c(-c4c(-c5ccc(F)cc5)ncn4CC(F)(F)F)n3)cc2)CC1=O [Compound 194, 5′-(4-fluorophenyl)-N-(4-(4-methyl-3-oxopiperazin-1-yl)phenyl)-3′-(2,2,2-trifluoroethyl)-1H,3′H-[2,4′-biimidazole]-4-carboxamide] | 0.1 to 1 nM |  | 12 to 120 nM | > 120 nM |
| CC1CN(c2ccc(NC(=O)c3c[nH]c(-c4c(-c5ccc(F)cc5)ncn4C(C)C)n3)cc2)CC(C)N1C (stereo not shown) [Compound 196, 5′-(4-fluorophenyl)-3′-isopropyl-N-(4-(3,4,5-trimethylpiperazin-1-yl)phenyl)-1H,3′H-[2,4′-biimidazole]-4-carboxamide] | < 0.1 nM |  | 12 to 120 nM | 12 to 120 nM |
| CN1CCN(c2ccc(NC(=O)c3c[nH]c(-c4c(-c5ccc(F)cc5)ncn4[C@H]4CC[C@@H](O)CC4)n3)cc2)CC1 [Compound 172] |  |  | 12 to 120 nM |  |
| CC(C)n1cnc(-c2ccc(C(F)(F)F)cc2)c1-c1nc(C(=O)Nc2ccc(N3CCN(CCO)CC3)cc2)c[nH]1 [Compound 134] |  | ++ (10-100 μM/min/mg as ++) | > 120 nM | > 120 nM |
| CC(C)n1cnc(-c2ccc(F)cc2)c1-c1nc(C(=O)Nc2ccc(N3C[C@H]4CC[C@@H](C3)N4C)cc2)c[nH]1 [Compound 186, 5′-(4-fluorophenyl)-3′-isopropyl-N-(4-((1R,5S)-8-methyl-3,8-diazabicyclo[3.2.1]octan-3-yl)phenyl)-1H,3′H-[2,4′-biimidazole]-4-carboxamide] |  |  | 1 to 12 nM | 1 to 12 nM |
| O=C(Nc1ccc(N2CCN(CC(F)(F)F)CC2)cc1)c1c[nH]c(-c2c(-c3ccc(F)cc3)ncn2CC(F)(F)F)n1 [Compound 192, 5′-(4-fluorophenyl)-3′-(2,2,2-trifluoroethyl)-N-(4-(4-(2,2,2-trifluoroethyl)piperazin-1-yl)phenyl)-1H,3′H-[2,4′-biimidazole]-4-carboxamide] | < 0.1 nM |  | 12 to 120 nM | > 120 nM |
| CC(C)n1cnc(-c2ccc(F)cc2)c1-c1nc(C(=O)Nc2ccc(N3CCN(C)C(=O)C3)cc2)c[nH]1 [Compound 185, 5′-(4-fluorophenyl)-3′-isopropyl-N-(4-(4-methyl-3-oxopiperazin-1-yl)phenyl)-1H,3′H-[2,4′-biimidazole]-4-carboxamide] | 0.1 to 1 nM |  | 12 to 120 nM | 12 to 120 nM |
| CC(C)n1cnc(-c2ccc(F)cc2)c1-c1nc(C(=O)Nc2ccc(CCC(=O)O)cc2)c[nH]1 [Compound 102, 3-(4-(5′-(4-fluorophenyl)-3′-isopropyl-1H,3′H-[2,4′-biimidazole]-4-carboxamido)phenyl)propanoic acid] |  | +++ (1-10 μM/min/mg as +++) | 12 to 120 nM | > 120 nM |
| C[N+]1([O-])CCN(c2ccc(NC(=O)c3c[nH]c(-c4c(-c5ccc(F)cc5)ncn4CC(F)(F)F)n3)cc2)CC1 [Compound 166, 4-(4-(5′-(4-fluorophenyl)-3′-(2,2,2-trifluoroethyl)-1H,3′H-[2,4′-biimidazole]-4-carboxamido)phenyl)-1-methylpiperazine 1-oxide] |  | +++ (1-10 μM/min/mg as +++) | > 120 nM | > 120 nM |
| CC(C)n1cnc(-c2ccc(F)cc2)c1-c1nc(C(=O)Nc2ccc(N3CCN(CC(F)(F)F)CC3)cc2)c[nH]1 [Compound 189, 5′-(4-fluorophenyl)-3′-isopropyl-N-(4-(4-(2,2,2-trifluoroethyl)piperazin-1-yl)phenyl)-1H,3′H-[2,4′-biimidazole]-4-carboxamide] | 0.1 to 1 nM |  | 12 to 120 nM | 12 to 120 nM |
| O=C(Nc1ccc(N2CCN(CCO)CC2)cc1)c1c[nH]c(-c2c(-c3ccc(F)cc3)ncn2[C@H]2CC[C@H](O)CC2)n1 [Compound 158, 5′-(4-fluorophenyl)-3′-((1r,4r)-4-hydroxycyclohexyl)-N-(4-(4-(2-hydroxyethyl)piperazin-1-yl)phenyl)-1H,3′H-[2,4′-biimidazole]-4-carboxamide] |  | +++ (1-10 μM/min/mg as +++) | 1 to 12 nM | 12 to 120 nM |
| CC(C)n1cnc(-c2ccc(Cl)cc2)c1-c1nc(C(=O)Nc2ccc(CCC(=O)O)cc2)c[nH]1 [Compound 137, 3-(4-(5′-(4-chlorophenyl)-3′-isopropyl-1H,3′H-[2,4′-biimidazole]-4-carboxamido)phenyl)propanoic acid] |  | +++ (1-10 μM/min/mg as +++) | 1 to 12 nM | > 120 nM |
| CN1CCN(c2ccc(NC(=O)c3c[nH]c(-c4ncn(C(F)F)c4-c4ccc(F)cc4)n3)cc2)CC1 [Compound 175] |  |  | 1 to 12 nM |  |
| CC(C)n1cnc(-c2ccc(F)cc2)c1-c1nc(C(=O)Nc2ccc(N3CCN(C(N)=O)CC3)cc2)c[nH]1 [Compound 99, N-(4-(4-carbamoylpiperazin-1-yl)phenyl)-5′-(4-fluorophenyl)-3′-isopropyl-1H,3′H-[2,4′-biimidazole]-4-carboxamide] |  | ++ (10-100 μM/min/mg as ++) | > 120 nM | > 120 nM |
| CC(=O)N1CCN(c2ccc(NC(=O)c3c[nH]c(-c4c(-c5ccc(F)cc5)ncn4C(C)C)n3)cc2)CC1 [Compound 188, N-(4-(4-acetylpiperazin-1-yl)phenyl)-5′-(4-fluorophenyl)-3′-isopropyl-1H,3′H-[2,4′-biimidazole]-4-carboxamide] | 0.1 to 1 nM |  | 1 to 12 nM | 12 to 120 nM |
| CC(C)n1cnc(-c2ccc(F)cc2)c1-c1nc(C(=O)Nc2ccc(C(=O)O)cc2)c[nH]1 [Compound 113, 4-(5′-(4-fluorophenyl)-3′-isopropyl-1H,3′H-[2,4′-biimidazole]-4-carboxamido)benzoic acid] |  | +++ (1-10 μM/min/mg as +++) | 1 to 12 nM | > 120 nM |
